Consider one sequence from patent US9902761B2, “Polypeptides, nucleic acids and uses thereof” (AGENCY FOR SCIENCE, TECHNOLOGY AND RESEARCH, priority 2013, dated 2018).

The test system of test [1] is hESCs. The test is described as follows: embryoid body differentiation of ELA-treated hESCs (qPCR). The class given is cell-based, human. Here is the method:
Embryoid body differentiation was performed by plating 1 million cells per well of an Aggrewell 400 plate in Aggrewell Medium (Stem Cell Technologies) followed by harvesting and replating into low-adhesion plates (Corning).
(§1) After the indicated time periods, embryoid bodies were harvested and RNA extracted using RNeasy kit ([…]). qPCR reactions were carried out using either Universal FastSlart SYBR Green Mastermix (Roche) or using the Universal Probe Library system (Roche) in tandem with Taqman Fast Mastermix (Invitrogen). Primer sequences can be found in Table E1.
A general note: Quantitative PCR measures a nucleic acid by following its amplification.

The subject of test [2] is hESCs. The test is described as follows: stress-induced apoptosis of hESCs by ActinomycinD. The class given is cell-based, human. Here is the method:
To induce apoptosis, hESCs were treated with the indicated doses of ActinomycinD (Sigma) or ionizing radiation followed by Aqueous One Cell Titer (Promega) or CASPASE GLO3/7 (Promega) assays 12 hours post-treatment.

Test [3] concerns hESCs. Briefly: xCELLigence real time growth assay, cell counts and colony size of hESCs. The test is classed as cell-based, human. Here is the method:
Feeder-free hESCs were cultured in clumps in mTSER1 (Stem Cell Technologies) on Matrigel (BD 354277).
hESCs were dissociated into single cells using Accutase (Stem Cell Technologies) and plated in the presence of 10 μM Y-27632 (ROCK inhibitor) for 12 hours (Watanabe et al., 2007).
For xCELLigence real time growth assays, 4000 cells were plated per well of an E-plate (ACEA Biosciences) with media changes every 48 hours.
Recombinant ELA was added at 2.5 uM (or 10 μg/ml). Cell cycle studies were performed with Click-iT EDU staining kit (Invitrogen) and by performing a double thymidine block (2.5 mM thymidine; 16 hour block, 8 hour release, 16 hour block) followed by DAPI staining for DNA content at the indicated times following release.

The subject of the next test is HIV-1 NL43. Briefly: HIV inhibition assay in P4C5 HeLa cells (β-gal activity). The conditions noted are these: CXCR4-tropic strain. The class given is cell-based.
The subject of test [4] is hESCs. Briefly: qPCR of mesendodermal markers in hESCs. The test is classed as cell-based, human. Here is the method:
as §1

For the next test, the system named is PRAS40. The test is described as follows: SILAC-based phosphoproteomic analysis of hESCs pulsed for 10 minutes. Particulars: 10 minute pulse, 5 uM. The test is classed as cell-based, human.
The nature of test [5]: coronary artery disease / myocardial infarction, APELIN experiments repeated with ELABELA. The test is classed as in vivo. From the text: Peptides 2013; 46:76-82. • Li L, Zeng H, Chen J X. Apelin-13 increases myocardial progenitor cells and improves repair postmyocardial infarction. Am J Physiol Heart Cire Physiol 2012; 303:H605-18. • Pisarenko O I, Serebryakova L I, Pelogeykina Y A, et al. In vivo reduction of reperfusion injury to the heart with apelin-12 peptide in rats. Bull Exp Biol Med 2011; 152:79-82.

Test [6] relates to human chondrosarcoma cell line. Briefly: growth and survival effect of recombinant ELA on chondrosarcoma cells. The test is classed as cell-based. How it is done: (§2) Primary human fibroblasts, SW1353 chondrosarcoma (ATCC) and NTERA2 hECs (a gift from Barbara Knowles and Davor Solter) were grown in Dulbecco's modified Eagle's medium (DMEM) with 10% FBS (Hyclone), 2 mM GlutaMAX™ (Invitrogen) and 1 mM sodium pyruvate. For xCELLigence real time growth assays, 4000 cells were plated per well of an E-plate (ACEA Biosciences) with media changes every 48 hours. […] Cell cycle studies were performed with Click-iT EDU staining kit (Invitrogen) and by performing a double thymidine block (2.5 mM thymidine; 16 hour block, 8 hour release, 16 hour block) followed by DAPI staining for DNA content at the indicated times following release.

Test [7] is described as follows: myocardial ischaemia-reperfusion injury, APELIN experiments repeated with ELABELA. The test is classed as in vivo. The conditions noted are these: administered during reperfusion. From the text:
Peptides 2009; 30:1144-52. • Simpkin J C, Yellon D M, Davidson S M, Lim S Y, Wynne A M, Smith C C. […] Basic Res Cardiol 2007; 102:518-28.

For test [8], the system named is hESCs. The test is described as follows: FACS of stem cell surface markers SSEA3 and TRA-1-60 in hESCs. The class given is cell-based, human.
The test system of the next test is PI3K/AKT pathway. Briefly: signaling pathway assay in starved hESCs pulsed with peptide (SDS-PAGE, western). The test is classed as cell-based, human. Here is the method: To assay the signaling pathway activated by ELA, hESCs were dissociated and plated in mTSER1 for 48 hours, followed by a 2-hour starvation in DMEM/F12. Synthetically produced ELA or ELA^RR>GG peptides, dialyzed against PBS to remove any residual synthesis buffers, were added at a final concentration of 5 uM (or as indicate(D) for the indicated period of time. Where applicable, PI3K inhibitors LY294002 (5 uM) and Wortmannin (1 uM) were added 30 minutes before pulsing with ELA peptides. Cells were lysed with PhosphoSafe™ (Millipore) for SDS-PAGE.

Test [9] has as its system hESCs. The test is described as follows: stress-induced apoptosis of hESCs by ActinomycinD. The test is classed as cell-based, human. This is another data set of the same source.
In test [10] the test system is primary human fibroblasts. Briefly: growth and survival effect of recombinant ELA on primary fibroblasts. The class given is cell-based. How it is done:
as §2

Test [11] can be described thus: hypertension, APELIN experiments repeated with ELABELA. The conditions noted are these: in vivo. The source says: Regulatory Peptides. 2001; 99(2-3):87-92. • Cheng X, Cheng X S, Pang C C. […] European Journal of Pharmacology. […] Journal of the American College of Cardiology. 2008; 52(11):908-913.
Test [12] is described as follows: erectile dysfunction, APELIN experiments repeated with ELABELA. The conditions noted are these: in vivo. From the text:
J Sex Med. 2013 Apr. 11. doi: 10.11 l/jsm.12158.

The target of another test is CXCR4 (Homo sapiens, UniProt P61073). Briefly: PathHunter β-Arrestin CXCR4 assay, activation. The test is classed as cell-based. Particulars: β-Arrestin recruitment. How it is done: To detect activation of CXCR4 by ELA or SDF-1, recombinant ELA or SDF-1 were added in increasing concentrations for 90-180 minutes to cells stably expressing CXCR4 coupled to a downstream reporter. β-Arrestin recruitment was measured using the PathHunter® β-Arrestin CXCR4 assay (DiscoveRx). Interaction of CXCR4 with Arrestin was detected by Enzyme Fragment Complementation (EFC) between two complementary domains of β-galactosidase (β-Gal), one fused to CXCR4 and the other fused to β-Arrestin. β-Arrestin recruitment to CXCR4 results in complementation of the two domains to generate β-Gal activity. % Ac ? vity=100%×(mean RLU of test sample−mean RLU of vehicle control)/(mean MAX control ligand−mean RLU of vehicle control). To detect antagonism of SDF-1 by ELA, the assay was run in antagonist mode by measuring the EC50 of ELA in the presence of SDF-1 at EC80 concentration. To detect synergism between ELA and SDF-1, the assay was run in positive allosteric mode by measuring the EC50 of ELA in the presence of SDF-1 at EC20 concentration.
Chain of CXCR4 (P61073 whole entry, the tested form may be a part): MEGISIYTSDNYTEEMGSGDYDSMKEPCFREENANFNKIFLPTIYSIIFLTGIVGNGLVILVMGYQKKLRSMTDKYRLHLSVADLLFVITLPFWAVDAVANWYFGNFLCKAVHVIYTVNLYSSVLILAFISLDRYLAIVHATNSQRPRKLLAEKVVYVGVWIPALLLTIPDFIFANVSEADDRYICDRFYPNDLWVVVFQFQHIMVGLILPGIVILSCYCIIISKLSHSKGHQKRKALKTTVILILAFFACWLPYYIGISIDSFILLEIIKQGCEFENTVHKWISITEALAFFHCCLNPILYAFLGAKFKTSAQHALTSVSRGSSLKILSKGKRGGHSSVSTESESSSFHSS

Entries after “also recorded” stand apart in the source; their conditions may differ.

QRPVNLTMRRKLRKHNCLQRRCMPLHSRVPFP [ELA]: the “lineage bias during embryoid body differentiation” value with hESCs [1] is listed as “not biased towards mesoderm or endoderm lineages”. In the test with hESCs [2], the “activated CASPASE3/7 and CASPASE 9 after ActinomycinD” value was “entirely suppressed”. Also, in the test on hESCs [2] (nanomolar concentrations of ActinomycinD), the “resistance or sensitivity to ActinomycinD” value was “conferred significant resistance to control hESCs and completely rescued shELA hESCs”. The “rescue of the growth of shELA hESCs” value with hESCs [3] (addition of recombinant peptide to shELA hESCs) was “entirely rescued to normal levels”. The “concentration range in which the recombinant peptide is bioactive” value in the test with hESCs [3] (hESCs) was “bioactive only in the μM range; also recorded: works in the μM range”. Further, in the test on HIV-1 NL43, the “inhibition of infection with HIV-1 NL43” value is recorded as “inhibits infection”. Besides, the “concentration at which ELA inhibits HIV” value in the test with HIV-1 NL43 (HeLa cells, B-Gal activity after 36-48 hrs of infection) was in the range of 10 to 40 µM. For the same sequence, in the test on hESCs [4], the “expression of mesendodermal genes GATA6, GATA4, FOXA2, EOMES and BRA” value is “consistently upregulated”. For the same sequence, the “phosphopeptide LNpTSDFQK derived from PRAS40” value with PRAS40 is “Among the top phosphopeptides activated by ELA”. Moreover, the “angiogenesis and cardiac repair postmyocardial infarction” value in test [5] (in vivo) is “promote angiogenesis and ameliorate cardiac repair postmyocardial infarction”. Besides, the “myocardial infarction size and damage to cardiomyocytes” value in test [5] (injection) is “limit the myocardial infarction size and reduce damage to cardiomyocytes”. The “activity of recombinant ELA on human chondrosarcoma cell line” value in test [6] is “exerted activity only on hESCs cultures and no other differentiated cell types”. For the same sequence, in test [7], the infarct size entry is listed as “significantly decrease infarct size”. Besides, the “levels of cell surface markers SSEA3 and TRA-1-60” value in the test with hESCs [8] is recorded as “unchanged levels”. For the same sequence, in the test on PI3K/AKT pathway, the “activation of ERK and SMAD2” value was “little to no activation of ERK and SMAD2”; the “activation of PI3K/AKT and mTORC1 pathway (p70S6K phosphorylation)” value was “activates the PI3K/AKT pathway and subsequently the mTORC1 pathway”. The “phosphorylation of AKT at serine 473 and PRAS40 at threonine 246” value with PI3K/AKT pathway (5 uM peptide after 2-hour starvation) was “sufficient to trigger the immediated phosphorylation of AKT at serine 473”. Besides, in the test with hESCs [9], the “levels of MCL-1” value is on record as “rescued with exogenous ELA” and the “levels of P53 protein following exposure to stress” value is on record as “no apparent effect”. Moreover, the BAX localisation result in the test with hESCs [9] (mitochondria versus cytoplasm) is “remained primarily in the cytoplasm”. Moreover, in [10], the “activity of recombinant ELA on primary human fibroblasts” value is “exerted activity only on hESCs cultures and no other differentiated cell types”. The blood pressure entry in test [11] is given as “causes a reduction in blood pressure”. For the same sequence, in [12], the erectile function result is recorded as “significant restoration of erectile function”. The “activation of CXCR4” value with CXCR4 is listed as “cannot activate CXCR4”.
